Data: PubChem BioAssay AID1963834 (Molecular Pharmacology Branch, DTP, NCI, 2024)

Test system: 873145-292-R-J1-PDC complex spheroid viability
Experiment: Anticancer human tumor 873145-292-R-J1-PDC patient-derived renal clear cell carcinoma cell line growth inhibition [POLQ]
Conditions: for IC50: curve of first compound; for viability, T/C: stronger effect = lower value
Summary of the method: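 Growth inhibition in 3D: complex spheroids (tumor PDC, HUVEC, MSC) treated with POLQ inhibitor combinations; where Cmax unknown, highest tested concentration 10 microM, except SN-38 at 1 microM.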

[1] = second compound 0.0316 µM, first compound 0.0316 µM
[2] = second compound 0.0316 µM, first compound 0.1 µM
[3] = second compound 0.0316 µM, first compound 0.316 µM
[4] = second compound 0.0316 µM, first compound 1 µM
[5] = second compound 0.1 µM, first compound 0.0316 µM
[6] = second compound 0.1 µM, first compound 0.1 µM
[7] = second compound 0.1 µM, first compound 0.316 µM
[8] = second compound 0.1 µM, first compound 1 µM
[9] = second compound 0.316 µM, first compound 0.0316 µM
[10] = second compound 0.316 µM, first compound 0.1 µM
[11] = second compound 0.316 µM, first compound 0.316 µM
[12] = second compound 0.316 µM, first compound 1 µM
[13] = second compound 1 µM, first compound 0.0316 µM
[14] = second compound 1 µM, first compound 0.1 µM
[15] = second compound 1 µM, first compound 0.316 µM
[16] = second compound 1 µM, first compound 1 µM
[17] = second compound 3.16 µM, first compound 0.0316 µM
[18] = second compound 3.16 µM, first compound 0.1 µM
[19] = second compound 3.16 µM, first compound 0.316 µM
[20] = second compound 3.16 µM, first compound 1 µM
[21] = second compound 10 µM, first compound 0.0316 µM
[22] = second compound 10 µM, first compound 0.1 µM
[23] = second compound 10 µM, first compound 0.316 µM
[24] = second compound 10 µM, first compound 1 µM
[25] = second compound 0.0316 µM, first compound 3.16 µM
[26] = second compound 0.0316 µM, first compound 10 µM
[27] = second compound 0.1 µM, first compound 3.16 µM
[28] = second compound 0.1 µM, first compound 10 µM
[29] = second compound 0.316 µM, first compound 3.16 µM
[30] = second compound 0.316 µM, first compound 10 µM
[31] = second compound 1 µM, first compound 3.16 µM
[32] = second compound 1 µM, first compound 10 µM
[33] = second compound 3.16 µM, first compound 3.16 µM
[34] = second compound 3.16 µM, first compound 10 µM
[35] = second compound 10 µM, first compound 3.16 µM
[36] = second compound 10 µM, first compound 10 µM
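Also: spheroids exposed to compounds for 7 days before viability readout.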
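For viability, T/C in this document: luminescence signal used as surrogate for viable cell content; 100% = DMSO vehicle control viability.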

For C=CCn1c(=O)c2cnc(Nc3ccc(N4CCN(C)CC4)cc3)nc2n1-c1cccc(C(C)(C)O)n1 + Cc1cccc(N(C)C(=O)C2C(O)CCN2c2nc(C)cc(C(F)(F)F)c2C#N)c1, the IC50 (second compound 0.0316 µM) was > 1000 nM, the IC50 (second compound 0.1 µM) was > 1000 nM and the IC50 (second compound 0.316 µM) was > 1000 nM. The IC50 (second compound 1 µM) was > 1000 nM, the IC50 (second compound 3.16 µM) was > 1000 nM and the IC50 (second compound 10 µM) was > 1000 nM. For the same molecule, the viability, T/C (second compound 0.0316 µM, first compound 0.00316 µM) was 93.1%, the viability, T/C (second compound 0.0316 µM, first compound 0.01 µM) was 104% and the viability, T/C [1] was 102%. For the same molecule, the viability, T/C [2] was 92%, the viability, T/C [3] was 83.3% and the viability, T/C [4] was 77.8%. The viability, T/C (second compound 0.1 µM, first compound 0.00316 µM) was 101%, the viability, T/C (second compound 0.1 µM, first compound 0.01 µM) was 97.3% and the viability, T/C [5] was 96%. The viability, T/C [6] was 87.1%, the viability, T/C [7] was 88.3% and the viability, T/C [8] was 76.7%. For the same molecule, the viability, T/C (second compound 0.316 µM, first compound 0.00316 µM) was 101%, the viability, T/C (second compound 0.316 µM, first compound 0.01 µM) was 110% and the viability, T/C [9] was 82.8%. It also gave a viability, T/C [10] of 94.6%, a viability, T/C [11] of 81.4% and a viability, T/C [12] of 74.9%. For the same molecule, the viability, T/C (second compound 1 µM, first compound 0.00316 µM) was 89.8%, the viability, T/C (second compound 1 µM, first compound 0.01 µM) was 94.4% and the viability, T/C [13] was 101%. For the same molecule, the viability, T/C [14] was 85.8%, the viability, T/C [15] was 87.5% and the viability, T/C [16] was 75.5%. The viability, T/C (second compound 3.16 µM, first compound 0.00316 µM) was 97.7%, the viability, T/C (second compound 3.16 µM, first compound 0.01 µM) was 120% and the viability, T/C [17] was 112%. It also gave a viability, T/C [18] of 91.3%, a viability, T/C [19] of 86.9% and a viability, T/C [20] of 81.7%. It also gave a viability, T/C (second compound 10 µM, first compound 0.00316 µM) of 93.2%, a viability, T/C (second compound 10 µM, first compound 0.01 µM) of 97.2% and a viability, T/C [21] of 102%. The viability, T/C [22] was 85.1%, the viability, T/C [23] was 81.4% and the viability, T/C [24] was 75.3%.

CC1COCCN1c1cc(-c2ccnn2C)c2ccnc(-c3ccn[nH]3)c2n1 (stereo unspecified) + Cc1cccc(N(C)C(=O)C2C(O)CCN2c2nc(C)cc(C(F)(F)F)c2C#N)c1 showed an IC50 (second compound 0.0316 µM) of 1080 nM, an IC50 (second compound 0.1 µM) of 1600 nM and an IC50 (second compound 0.316 µM) of 1540 nM. The IC50 (second compound 1 µM) was 1530 nM, the IC50 (second compound 3.16 µM) was 987 nM and the IC50 (second compound 10 µM) was 895 nM. It also gave a viability, T/C [1] of 90.6%, a viability, T/C [2] of 79.1% and a viability, T/C [3] of 68.1%. The viability, T/C [4] was 46.1%, the viability, T/C [25] was 48.6% and the viability, T/C [26] was 43.1%. It also gave a viability, T/C [5] of 99.3%, a viability, T/C [6] of 87.7% and a viability, T/C [7] of 74.3%. The viability, T/C [8] was 54.5%, the viability, T/C [27] was 39.9% and the viability, T/C [28] was 45.4%. For the same molecule, the viability, T/C [9] was 95.1%, the viability, T/C [10] was 90.6% and the viability, T/C [11] was 69%. The viability, T/C [12] was 53.3%, the viability, T/C [29] was 47% and the viability, T/C [30] was 36.1%. The viability, T/C [13] was 92.3%, the viability, T/C [14] was 80.5% and the viability, T/C [15] was 67.7%. For the same molecule, the viability, T/C [16] was 50.4%, the viability, T/C [31] was 46.6% and the viability, T/C [32] was 44.4%. It also gave a viability, T/C [17] of 101%, a viability, T/C [18] of 88% and a viability, T/C [19] of 71.4%. It also gave a viability, T/C [20] of 47%, a viability, T/C [33] of 44.1% and a viability, T/C [34] of 40.5%. It also gave a viability, T/C [21] of 91.6%, a viability, T/C [22] of 82.9% and a viability, T/C [23] of 69%. The viability, T/C [24] was 46.5%, the viability, T/C [35] was 42% and the viability, T/C [36] was 40.2%.

In the case of CC1COCCN1c1cc(C2(S(C)(=N)=O)CC2)nc(-c2ccnc3[nH]ccc23)n1 (stereo unspecified) + Cc1cccc(N(C)C(=O)C2C(O)CCN2c2nc(C)cc(C(F)(F)F)c2C#N)c1, the IC50 (second compound 0.0316 µM) is reported as > 10000 nM, the IC50 (second compound 0.1 µM) is reported as > 10000 nM and the IC50 (second compound 0.316 µM) is reported as > 10000 nM. The IC50 (second compound 1 µM) was > 10000 nM, the IC50 (second compound 3.16 µM) was > 10000 nM and the IC50 (second compound 10 µM) was > 10000 nM. For the same molecule, the viability, T/C [1] was 98.1%, the viability, T/C [2] was 102% and the viability, T/C [3] was 101%. It also gave a viability, T/C [4] of 95.4%, a viability, T/C [25] of 83.6% and a viability, T/C [26] of 64.5%. It also gave a viability, T/C [5] of 104%, a viability, T/C [6] of 98.5% and a viability, T/C [7] of 90.1%. It also gave a viability, T/C [8] of 102%, a viability, T/C [27] of 75.1% and a viability, T/C [28] of 59.4%. It also gave a viability, T/C [9] of 115%, a viability, T/C [10] of 96.6% and a viability, T/C [11] of 98.8%. It also gave a viability, T/C [12] of 87.1%, a viability, T/C [29] of 92% and a viability, T/C [30] of 60.1%. The viability, T/C [13] was 101%, the viability, T/C [14] was 99.3% and the viability, T/C [15] was 93.5%. It also gave a viability, T/C [16] of 96%, a viability, T/C [31] of 75.3% and a viability, T/C [32] of 54.5%. It also gave a viability, T/C [17] of 99.4%, a viability, T/C [18] of 99.6% and a viability, T/C [19] of 99.6%. It also gave a viability, T/C [20] of 87.2%, a viability, T/C [33] of 77.4% and a viability, T/C [34] of 55.4%. It also gave a viability, T/C [21] of 90.8%, a viability, T/C [22] of 96.3% and a viability, T/C [23] of 98.4%. The viability, T/C [24] was 91.5%, the viability, T/C [35] was 64.9% and the viability, T/C [36] was 68.8%.
